We go through one molecule from patent US20170027952A1, “ASSOCIATION BETWEEN 3-[(3--2-OXO-2,3-DIHYDRO-1H-INDOL-5-YL)METHYL]-1,3-THIAZOLIDINE-2,4-DIONE AND AN EGFR TYR KINASE INHIBITOR” (LES LABORATOIRES SERVIER, priority 2015, published 2017).

Counter-ions that a name gives are not always drawn.

For experiment [1], the system named is erlotinib-resistant HCC827 tumour. The experiment in a line: Inhibition of the growth of the erlotinib-resistant HCC827 tumour. It counts as in vivo, female SCID mice. The following applies: d19, end of treatments, compounds on their own, oral daily for 19 days; erlotinib 12.5 mg/kg, compound A 50 mg/kg. The procedure: The tumours were allocated at random into groups of eight mice when the tumour volume had reached approximately 200 mm^3. […] The tumour volumes were measured two to three times each week using a sliding caliper. The median tumour volumes with the interquartile ranges are recorded on the graph.

For experiment [2], the system named is erlotinib-resistant cell line HCC827. The following applies: resistant line HCC827, compound on its own, 100 nM. The procedure:
A cell viability test allowing the anti-proliferative ability of the anti-tumour compounds to be measured was used. The chosen cell line is line HCC827, a non-small cell lung cancer line that depends upon EGFR for its survival. […] The cells are seeded (150 μl) at the appropriate density in the wells of 96-well plates 2 days prior to the experiment. One column contains the untreated control cells representing 100% proliferation. The others are incubated with the test products for 4 doubling times.

As to `O=C1Nc2ccc(CN3C(=O)CSC3=O)cc2C1=Cc1cc(CN2CCOCC2)c[nH]1` [compound A, 3-[(3-{[4-(4-morpholinyl-methyl)-1H-pyrrol-2-yl]methylene}-2-oxo-2,3-dihydro-1H-indol-5-yl)methyl]-1,3-thiazolidine-2,4-dione hydrochloride], the “inhibition of the growth” value in experiment [1] amounted to 83%. In addition, the “effect on the viability” value in experiment [2] was “no effect on the viability”.
